Reference: PubChem BioAssay AID330 (DTP/NCI, 2004)
“And” between values parts separate entries of the source, which are not always exact repeats. Identical values can stand only once. Inconclusive results and toxic doses are left out. The calls were made as follows: active = survival T/C of 150% or more; inactive = T/C below 125% in these data.

System: P388 leukemia ip, CD2F1 mice, survival T/C
Test: NCI In Vivo Anticancer Drug Screen. Data for tumor model P388 Leukemia (intraperitoneal) in CD2F1 (CDF1) mice
Conditions: endpoint: median survival time, higher = longer survival
Summary of the method: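 Mice carrying the transplanted tumor received test compound or vehicle. Survival was recorded in each group, and the value is the treated-group measurement divided by that of the vehicle-treated control group.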

[1] = dose: 100.0 mg/kg/injection, schedule: Q01DX001 (ip), vehicle: saline with Tween-80
[2] = dose: 200.0 mg/kg/injection, schedule: Q01DX001 (ip), vehicle: saline with Tween-80
[3] = dose: 400.0 mg/kg/injection, schedule: Q01DX001 (ip), vehicle: saline with Tween-80
[4] = dose: 50.0 mg/kg/injection, schedule: Q01DX005 (ip), vehicle: Klucel (hydroxypropylcellulose) (HPC)
[5] = dose: 100.0 mg/kg/injection, schedule: Q01DX005 (ip), vehicle: Klucel (hydroxypropylcellulose) (HPC)
[6] = dose: 200.0 mg/kg/injection, schedule: Q01DX005 (ip), vehicle: Klucel (hydroxypropylcellulose) (HPC)
[7] = dose: 100.0 mg/kg/injection, schedule: Q01DX009 (ip), vehicle: saline with Tween-80
[8] = dose: 100.0 mg/kg/injection, schedule: Q01DX009 (ip), vehicle: saline
[9] = dose: 200.0 mg/kg/injection, schedule: Q01DX009 (ip), vehicle: saline
[10] = dose: 6.25 mg/kg/injection, schedule: Q01DX005 (ip), vehicle: Klucel (hydroxypropylcellulose) (HPC)
[11] = dose: 12.5 mg/kg/injection, schedule: Q01DX005 (ip), vehicle: Klucel (hydroxypropylcellulose) (HPC)
[12] = dose: 25.0 mg/kg/injection, schedule: Q01DX005 (ip), vehicle: Klucel (hydroxypropylcellulose) (HPC)
[13] = dose: 50.0 mg/kg/injection, schedule: Q01DX009 (ip), vehicle: Klucel (hydroxypropylcellulose) (HPC)
[14] = dose: 100.0 mg/kg/injection, schedule: Q01DX009 (ip), vehicle: Klucel (hydroxypropylcellulose) (HPC)
[15] = dose: 50.0 mg/kg/injection, schedule: Q01DX005 (ip), vehicle: saline with Tween-80
[16] = dose: 100.0 mg/kg/injection, schedule: Q01DX005 (ip), vehicle: saline with Tween-80
[17] = dose: 200.0 mg/kg/injection, schedule: Q01DX005 (ip), vehicle: saline with Tween-80
[18] = dose: 25.0 mg/kg/injection, schedule: Q01DX009 (ip), vehicle: saline

Measured: T/C

CC(/C=N\Nc1ccc(Cl)cc1)=N/NC(=S)NCC(C)C
inactive: [1] 103 % of control | [2] 100 % of control | [3] 94 % of control

CCCCCCCCCCCCCCCCNC(=S)N=Nc1cc(C(C)C)c(NNC(=S)NCCCCCCCCCCCCCCCC)cc1C
inactive: [4] 92 % of control | [5] 99 % of control | [6] 97 % of control

Cc1c(C(=O)O)c(O)cc2c1C(=O)c1c(O)c(C3OC(CO)C(O)C(O)C3O)c(O)c(O)c1C2=O (stereo unspecified)
inactive: dose: 0.12 mg/kg/injection, schedule: Q01DX009 (ip), vehicle: saline 108 % of control | dose: 0.25 mg/kg/injection, schedule: Q01DX009 (ip), vehicle: saline 104 % of control | dose: 0.5 mg/kg/injection, schedule: Q01DX009 (ip), vehicle: saline 110 % of control | dose: 1.0 mg/kg/injection, schedule: Q01DX009 (ip), vehicle: saline 103 % of control | dose: 2.0 mg/kg/injection, schedule: Q01DX009 (ip), vehicle: saline 101 % of control

COC(=O)C1C2CC3c4[nH]c5cc(OC)c(Br)cc5c4CCN3CC2CC(OC(=O)c2cc(OC)c(OC)c(OC)c2)C1OC (stereo unspecified)
inactive: dose: 3.75 mg/kg/injection, schedule: Q01DX005 (ip), vehicle: Klucel (hydroxypropylcellulose) (HPC) 104 % of control | dose: 7.5 mg/kg/injection, schedule: Q01DX005 (ip), vehicle: Klucel (hydroxypropylcellulose) (HPC) 94 % of control | dose: 15.0 mg/kg/injection, schedule: Q01DX005 (ip), vehicle: Klucel (hydroxypropylcellulose) (HPC) 104 % of control | dose: 30.0 mg/kg/injection, schedule: Q01DX005 (ip), vehicle: Klucel (hydroxypropylcellulose) (HPC) 108 % of control

Cc1c(Cl)c(Cl)nn1C(C)C(=O)N(C)C (stereo unspecified)
inactive: dose: 100.0 mg/kg/injection, schedule: Q04DX003 (ip), vehicle: Klucel (hydroxypropylcellulose) (HPC) 95 % of control | dose: 200.0 mg/kg/injection, schedule: Q04DX003 (ip), vehicle: Klucel (hydroxypropylcellulose) (HPC) 95 % of control

CCOC(=O)C(/N=N\c1nn[nH]n1)/N=N/c1ncn[nH]1 (stereo unspecified)
inactive: dose: 100.0 mg/kg/injection, schedule: Q01DX001 (ip), vehicle: suspension in saline 102 % of control | dose: 200.0 mg/kg/injection, schedule: Q01DX001 (ip), vehicle: suspension in saline 102 % of control | dose: 400.0 mg/kg/injection, schedule: Q01DX001 (ip), vehicle: suspension in saline 107 % of control

O=c1c(N=Nc2ccc(Br)cc2)c(O)n(-c2ccc(Cl)cc2)c(=S)n1-c1ccc(Br)cc1
inactive: [1] 96 % of control | [2] 95 % of control | [3] 89 % of control

Nc1ccccc1C(=O)Nc1ccccc1
inactive: [7] 88 % of control

COP1(=O)OC(C)=C(C)c2cccn21 (stereo unspecified)
inactive: dose: 25.0 mg/kg/injection, schedule: Q04DX003 (ip), vehicle: saline with Tween-80 103 % of control | dose: 50.0 mg/kg/injection, schedule: Q04DX003 (ip), vehicle: saline with Tween-80 106 % of control | dose: 100.0 mg/kg/injection, schedule: Q04DX003 (ip), vehicle: saline with Tween-80 99 % of control and 96 % of control

CCCCCCCCCCCCCC1=C(O)C(=O)C=C(O)C1=O
inactive: dose: 1.0 mg/kg/injection, schedule: Q01DX005 (ip), vehicle: Klucel (hydroxypropylcellulose) (HPC) 100 % of control | dose: 2.0 mg/kg/injection, schedule: Q01DX005 (ip), vehicle: Klucel (hydroxypropylcellulose) (HPC) 105 % of control | dose: 4.0 mg/kg/injection, schedule: Q01DX005 (ip), vehicle: Klucel (hydroxypropylcellulose) (HPC) 95 % of control | dose: 8.0 mg/kg/injection, schedule: Q01DX005 (ip), vehicle: Klucel (hydroxypropylcellulose) (HPC) 102 % of control | dose: 16.0 mg/kg/injection, schedule: Q01DX005 (ip), vehicle: Klucel (hydroxypropylcellulose) (HPC) 98 % of control

CC(NCCO)C(O)c1ccccc1 (stereo unspecified)
inactive: [8] 90 % of control | [9] 98 % of control

COc1ccc([N+](=O)[O-])c(O)c1OC
inactive: dose: 12.5 mg/kg/injection, schedule: Q01DX009 (ip), vehicle: other 94 % of control | dose: 25.0 mg/kg/injection, schedule: Q01DX009 (ip), vehicle: other 96 % of control | dose: 50.0 mg/kg/injection, schedule: Q01DX009 (ip), vehicle: other 97 % of control | dose: 100.0 mg/kg/injection, schedule: Q01DX009 (ip), vehicle: other 94 % of control | dose: 200.0 mg/kg/injection, schedule: Q01DX009 (ip), vehicle: other 96 % of control

COc1cc(/C=C/C(=O)NCCc2c[nH]c3ccc(O)cc23)ccc1O
inactive: [10] 96 % of control | [11] 95 % of control | [12] 87 % of control and 90 % of control | [4] 88 % of control | [6] 88 % of control

COc1ccc(C2CC(C)(OC)Oc3cc4c(cc32)OCO4)cc1 (stereo unspecified)
inactive: dose: 100.0 mg/kg/injection, schedule: Q01DX001 (ip), vehicle: Klucel (hydroxypropylcellulose) (HPC) 100 % of control | dose: 200.0 mg/kg/injection, schedule: Q01DX001 (ip), vehicle: Klucel (hydroxypropylcellulose) (HPC) 94 % of control

NOCCCCCON
inactive: [13] 100 % of control | [14] 106 % of control

COc1ccc(S(=O)(=O)N/N=C\c2cc([N+](=O)[O-])cc([N+](=O)[O-])c2O)c(OC)c1OC
inactive: [15] 102 % of control | [16] 107 % of control | [17] 99 % of control

CCSC(=O)c1cc(C(=O)SCC)cc(C(C)(C)C)c1
inactive: [18] 100 % of control and 105 % of control | dose: 50.0 mg/kg/injection, schedule: Q01DX009 (ip), vehicle: saline with Tween-80 100 % of control | dose: 50.0 mg/kg/injection, schedule: Q01DX009 (ip), vehicle: saline 98 % of control and 95 % of control | [7] 114 % of control | [8] 98 % of control and 101 % of control | dose: 200.0 mg/kg/injection, schedule: Q01DX009 (ip), vehicle: saline with Tween-80 124 % of control | [9] 107 % of control and 97 % of control

CCCCCCCCCCCCCCCC[N+](C)(C)CCNC(=O)C1CSC(C)(C)N1C=O (stereo unspecified)
inactive: dose: 12.5 mg/kg/injection, schedule: Q01DX009 (ip), vehicle: saline 106 % of control | [18] 97 % of control

CC12CC3(Br)CC(Br)(C1)CC(CC(=O)O)(C2)C3
inactive: [13] 103 % of control | [14] 112 % of control | dose: 200.0 mg/kg/injection, schedule: Q01DX009 (ip), vehicle: Klucel (hydroxypropylcellulose) (HPC) 112 % of control

COc1ccc(C2c3cc4c(cc3OC(C)(OC)C2C)OCO4)cc1 (stereo unspecified)
inactive: [10] 95 % of control | [11] 87 % of control | [12] 87 % of control

O=[N+]([O-])c1cc2ccc3ccoc3c2o1
inactive: [4] 90 % of control | [5] 97 % of control | [6] 96 % of control

OCCN(CCO)Cc1nc2ccccc2[nH]1
inactive: dose: 50.0 mg/kg/injection, schedule: Q01DX005 (ip), vehicle: saline 104 % of control | dose: 100.0 mg/kg/injection, schedule: Q01DX005 (ip), vehicle: saline 99 % of control | dose: 200.0 mg/kg/injection, schedule: Q01DX005 (ip), vehicle: saline 101 % of control

O=c1[nH]c2c([N+](=O)[O-])cc(Cl)cc2nc1/C=C(\O)c1cccnc1
inactive: dose: 60.0 mg/kg/injection, schedule: Q01DX005 (ip), vehicle: Klucel (hydroxypropylcellulose) (HPC) 99 % of control | dose: 120.0 mg/kg/injection, schedule: Q01DX005 (ip), vehicle: Klucel (hydroxypropylcellulose) (HPC) 99 % of control | dose: 240.0 mg/kg/injection, schedule: Q01DX005 (ip), vehicle: Klucel (hydroxypropylcellulose) (HPC) 111 % of control

CSC(=S)N1CCN(C(=S)SC)C1=O
inactive: [4] 108 % of control | [5] 96 % of control | [6] 91 % of control

CC(=O)OCC1OC(Oc2ccc(C=C(C(C)=O)C(C)=O)cc2)C(OC(C)=O)C(OC(C)=O)C1OC(C)=O (stereo unspecified)
inactive: [15] 105 % of control | [16] 101 % of control | [17] 104 % of control
